Values after ≈ are worked out from the molar mass of the structure shown. Active and inactive are the calls of the source. No cut-off for these calls is given here.

A word on the IC50: it is the concentration at which inhibition is half-maximal. One may read the fraction unbound as the share of the substance not bound to proteins or other matrix. What is called inhibition is the change of the read-out against control, counted positive when it falls. Read a high inhibition as a response far below the control. What is called logD is lipophilicity at a set pH, counting ionised and neutral species. Lower therefore signals lower lipophilicity. What is called Kd is the concentration at which binding is half-saturated. A higher Kd goes with a looser complex. A word on the Ki: it is a measure of affinity in units of concentration, obtained from inhibition or displacement.

Series [1] addresses T1, Mitogen-activated protein kinase 14 (Homo sapiens, UniProt Q16539). Kind of series: Inhibition of human recombinant 5'-c-myc, His6-tagged p38-alpha using MSK1 as substrate assessed as inhibition of phosphorylation after 60 mins by ELISA in presence of ATP. Background: ELISA stands for enzyme-linked immunosorbent assay.
The target in series [2] is T1, Mitogen-activated protein kinase 14. Kind of series: Inhibition of human recombinant 5'-c-myc, His6-tagged p38-alpha using MK2 (46 to 400) as substrate assessed as inhibition of phosphorylation after 60 mins by ELISA in presence of ATP.
The target is the same in series [3]. As to the kind of experiment: Inhibition of p38-alpha (unknown origin) by p38alpha-MBP IoC assay.
The target in another series is Cytochrome P450 3A4 (Homo sapiens, UniProt P08684). Kind of series: Inhibition of CYP3A4 (unknown origin). Format: ADME.
Series [4] has as its target T1, Mitogen-activated protein kinase 14. As to the kind of experiment: Inhibition of p38-alpha in human TC28 cells assessed as inhibition of IL-1-induced PGE2 production incubated for 20 mins prior to IL-1 challenge measured after 24 hrs by ELISA. Format: cell-based.
Series [5] can be described thus: Fraction unbound in rat plasma by equilibrium dialysis method. In kind it is ADME, cell-free.
A short description of series [6]: Intrinsic clearance in human liver microsomes. In kind it is ADME. As to conditions: read-out: CLH. In general terms: Liver microsomes are vesicles of endoplasmic reticulum, rich in cytochrome P450 enzymes.
Series [7] in a line: Intrinsic clearance in rat hepatocytes assessed per 10^6 cells. Format: ADME, cell-based, Hepatocyte. The settings on record: read-out: CLH.
The target in series [8] is MAP kinase-activated protein kinase 2 (Homo sapiens) (UniProt P49137). Kind of series: Binding affinity to phosphorylated full length 2H,15N-labeled MK2 (unknown origin) expressed in Escherichia coli by 2D-NMR analysis.
Series [9] addresses Insulin-like growth factor 1 receptor (Homo sapiens) (UniProt P08069). The settings on record: 10 uM.
Description: Inhibition of IGF1R (unknown origin) at 10 uM
Series [10] in a line: Fraction unbound in human plasma by equilibrium dialysis method. In kind it is ADME, cell-free.
A short description of series [11]: Thermodynamic solubility of the compound at pH 7.4. In kind it is physicochemical. The settings on record: buffer, read-out: Therm_solubility.
Series [12] in a line: Lipophilicity, log D of the compound at pH 7.4. In kind it is physicochemical. The settings on record: buffer.
Series [13] has as its target T1, Mitogen-activated protein kinase 14. As to the kind of experiment: Inhibition of p38-alpha in human PBMC assessed as inhibition of LPS-induced TNF-alpha production incubated for 30 mins prior to LPS challenge measured after 7 hrs by ELISA.
Series [14] shares this target. Kind of series: Displacement of 1-[7-[3-[4-(aminomethyl)-1-piperidyl]propoxy]-6-methoxy-quinazolin-4-yl]-3-(2-chloro-6-methylphenyl)urea from GST-tagged phosphorylated p38-alpha (unknown origin) by surface plasmon resonance based ISA method.
For series [15] the target is unchanged. As to the kind of experiment: Competitive inhibition of human recombinant 5'-c-myc, His6-tagged p38-alpha using MK2 (46-400) as substrate.

Cytochrome P450 3A4, sequence (P08684 whole entry): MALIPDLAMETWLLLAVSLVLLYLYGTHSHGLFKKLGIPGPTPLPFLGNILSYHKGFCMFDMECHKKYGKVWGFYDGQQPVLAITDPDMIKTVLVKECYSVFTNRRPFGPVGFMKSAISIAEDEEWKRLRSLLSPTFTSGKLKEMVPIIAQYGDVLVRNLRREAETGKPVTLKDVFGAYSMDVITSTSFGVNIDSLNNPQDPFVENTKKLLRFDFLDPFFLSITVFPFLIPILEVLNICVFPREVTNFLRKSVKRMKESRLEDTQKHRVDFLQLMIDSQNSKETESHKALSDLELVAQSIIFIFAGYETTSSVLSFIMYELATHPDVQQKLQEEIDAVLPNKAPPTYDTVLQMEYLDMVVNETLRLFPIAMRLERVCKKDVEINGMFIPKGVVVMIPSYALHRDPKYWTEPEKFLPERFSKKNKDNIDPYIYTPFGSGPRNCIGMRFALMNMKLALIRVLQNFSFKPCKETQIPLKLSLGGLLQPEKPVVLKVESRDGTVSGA
T1 sequence (Q16539 whole entry): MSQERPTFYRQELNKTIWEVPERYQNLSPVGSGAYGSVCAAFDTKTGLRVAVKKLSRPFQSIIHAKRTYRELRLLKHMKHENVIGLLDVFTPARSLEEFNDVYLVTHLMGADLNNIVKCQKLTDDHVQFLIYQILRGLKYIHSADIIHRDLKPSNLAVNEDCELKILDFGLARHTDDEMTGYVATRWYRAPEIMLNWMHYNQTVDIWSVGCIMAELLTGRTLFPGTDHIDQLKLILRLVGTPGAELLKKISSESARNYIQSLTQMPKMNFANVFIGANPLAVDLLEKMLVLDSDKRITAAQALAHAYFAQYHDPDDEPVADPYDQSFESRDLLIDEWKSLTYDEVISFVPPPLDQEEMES
MAP kinase-activated protein kinase 2 (Homo sapiens), sequence (P49137 whole entry, looked up): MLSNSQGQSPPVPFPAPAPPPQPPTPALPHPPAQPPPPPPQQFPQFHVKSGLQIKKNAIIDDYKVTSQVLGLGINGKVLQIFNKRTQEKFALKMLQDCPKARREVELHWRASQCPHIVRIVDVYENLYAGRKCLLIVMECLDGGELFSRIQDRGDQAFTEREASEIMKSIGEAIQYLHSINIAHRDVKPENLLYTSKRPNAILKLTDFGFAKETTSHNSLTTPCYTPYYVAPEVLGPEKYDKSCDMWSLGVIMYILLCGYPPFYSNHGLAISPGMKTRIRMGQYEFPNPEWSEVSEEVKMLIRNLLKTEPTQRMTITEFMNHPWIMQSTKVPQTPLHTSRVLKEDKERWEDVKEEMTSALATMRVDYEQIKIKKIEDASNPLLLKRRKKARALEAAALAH
Insulin-like growth factor 1 receptor (Homo sapiens), sequence (P08069 31-736 limits assumed): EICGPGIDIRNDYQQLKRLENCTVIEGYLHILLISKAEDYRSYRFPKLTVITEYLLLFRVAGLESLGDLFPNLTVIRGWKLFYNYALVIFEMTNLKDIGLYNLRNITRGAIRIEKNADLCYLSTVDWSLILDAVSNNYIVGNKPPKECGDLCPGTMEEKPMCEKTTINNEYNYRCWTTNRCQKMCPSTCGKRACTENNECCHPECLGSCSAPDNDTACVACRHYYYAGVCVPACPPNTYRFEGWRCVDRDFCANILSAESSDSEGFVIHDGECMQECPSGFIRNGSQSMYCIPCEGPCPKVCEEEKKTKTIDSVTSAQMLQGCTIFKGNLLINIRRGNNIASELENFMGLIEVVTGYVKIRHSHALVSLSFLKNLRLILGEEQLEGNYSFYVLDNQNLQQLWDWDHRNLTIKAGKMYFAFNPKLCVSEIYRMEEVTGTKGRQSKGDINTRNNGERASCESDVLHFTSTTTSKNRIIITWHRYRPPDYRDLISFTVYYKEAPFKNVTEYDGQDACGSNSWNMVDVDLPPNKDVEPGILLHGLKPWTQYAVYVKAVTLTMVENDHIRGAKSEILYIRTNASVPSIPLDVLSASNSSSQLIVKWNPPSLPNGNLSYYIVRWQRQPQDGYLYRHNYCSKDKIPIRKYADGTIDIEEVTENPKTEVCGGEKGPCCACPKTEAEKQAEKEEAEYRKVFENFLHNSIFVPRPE
Insulin-like growth factor 1 receptor (Homo sapiens), sequence (P08069 741-1367 limits assumed): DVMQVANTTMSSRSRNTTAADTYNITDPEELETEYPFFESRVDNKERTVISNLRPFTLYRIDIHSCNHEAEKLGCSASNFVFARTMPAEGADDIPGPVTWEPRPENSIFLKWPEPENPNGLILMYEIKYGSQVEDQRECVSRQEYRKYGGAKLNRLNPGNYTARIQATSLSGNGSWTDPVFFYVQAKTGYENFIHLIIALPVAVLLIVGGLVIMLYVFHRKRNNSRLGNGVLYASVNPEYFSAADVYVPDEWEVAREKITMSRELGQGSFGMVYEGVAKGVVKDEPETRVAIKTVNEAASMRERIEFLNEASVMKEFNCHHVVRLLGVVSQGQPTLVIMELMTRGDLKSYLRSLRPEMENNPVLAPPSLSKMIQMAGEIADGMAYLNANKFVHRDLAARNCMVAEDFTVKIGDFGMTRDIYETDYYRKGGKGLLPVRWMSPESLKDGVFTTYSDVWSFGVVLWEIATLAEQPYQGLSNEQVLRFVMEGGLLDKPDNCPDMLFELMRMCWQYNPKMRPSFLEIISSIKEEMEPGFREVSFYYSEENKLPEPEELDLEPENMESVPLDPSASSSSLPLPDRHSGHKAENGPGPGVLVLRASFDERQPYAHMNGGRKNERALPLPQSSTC

As to `CCCc1c(C(=O)Nc2cc(S(C)(=O)=O)ccc2C)cnn1-c1ccccc1`, the half-maximal inhibitory concentration (IC50) in series [1] was 23000 nM; in series [2], 190 nM; in series [3], greater than 10000 nM.

For the molecule `CCCc1c(C(=O)Nc2cc(F)ccc2C)cnn1-c1ccccc1`, the results for the 50% inhibitory concentration (IC50) in [1], in series [2] and in series [3] were 2500 nM, 110 nM and greater than 10000 nM, respectively.

As for `CCCc1c(C(=O)Nc2cc(O)ccc2C)cnn1-c1ccccc1`, the IC50 in series [1] is less than 46 nM; in series [2] it was less than 46 nM; in [3] it was greater than 10000 nM.

Turning to `O=C(NCc1ccncc1)c1ccc(Oc2ccc(F)cc2)cc1`, the IC50 was 2300 nM in series [1], 2100 nM in series [2], greater than 10000 nM in [3] and 1000 nM against Cytochrome P450 3A4.

Consider `CCCc1c(C(=O)Nc2cc(S(=O)(=O)N(C)C)ccc2C)cnn1CC(C)C`, for which the IC50 in [1] was 5400 nM; in series [2], 76 nM; in series [3], greater than 10000 nM.

Consider `N#Cc1ccccc1Oc1ccc(C(=O)NCc2cccnc2)cc1`, for which the half-inhibitory concentration (IC50) in [1] is 15000 nM; in series [2], 560 nM; in series [4] it was 4700 nM; in series [3] it was greater than 10000 nM; against Cytochrome P450 3A4, greater than 10000 nM.

As for `CCCc1c(C(=O)Nc2cc(S(=O)(=O)N(C)C)ccc2C)cnn1-c1ccccc1`, the fraction unbound in [5] was 0.031; in series [10], 0.023. Besides, in series [6], the microsomal CLint turned out to be 62 µL/min/mg. Further, in series [7], the hepatocyte CLint came to 42 µL/min/1e6 cells. Moreover, the outcome in series [8] was inactive. In series [9], this molecule yielded an inhibition of 30%. Moreover, in series [11], the solubility thermodynamic was determined as 0.55 µM (≈ 0.235 µg/mL).

As to `Cc1ccccc1Oc1ccc(C(=O)NCc2ccncc2)cc1`, the concentration for half-maximal inhibition (IC50) was 5400 nM in [1], 2000 nM in series [2] and greater than 10000 nM in [3].

In the case of `O=C(NCc1ccncc1)c1ccc(Oc2ccc(Cl)cc2)cc1`, the IC50 in series [1] is 10000 nM; in series [2], 2400 nM; in series [3], greater than 10000 nM; against Cytochrome P450 3A4 it was 1000 nM.

For the molecule `N#Cc1ccccc1Oc1ccc(C(=O)NCc2ccccc2)cc1`, the IC50 in series [1] was greater than 100000 nM; in series [2], 450 nM; in series [4] it was 1400 nM; in [3], greater than 10000 nM; against Cytochrome P450 3A4, greater than 10000 nM.

On to `N#Cc1ccccc1Oc1ccc(C(=O)NCc2ccncn2)cc1`, for which the fraction unbound in series [5] was 0.2; in [10] it was 0.27. Moreover, the IC50 in series [1] was greater than 100000 nM; in series [2] it was 2800 nM; in series [4], 7100 nM; in [3], greater than 10000 nM; at Cytochrome P450 3A4 it was greater than 10000 nM. Moreover, in series [6], the microsomal CLint is less than 2 µL/min/mg. For the same molecule, the hepatocyte CLint in [7] was 23 µL/min/1e6 cells. Also, the solubility thermodynamic in [11] worked out at 360 µM (≈ 119 µg/mL).

Turning to `CCCc1c(C(=O)Nc2cc(C#N)ccc2C)cnn1-c1ccccc1`, the IC50 is 890 nM in series [1], 15 nM in [2], 210 nM in series [4] and greater than 10000 nM in series [3].

As for `CCCc1c(C(=O)Nc2cc(S(=O)(=O)N(C)C)ccc2C)cnn1-c1cccnc1`, the values for the fraction unbound in [5] and in [10] were 0.24 and 0.26, respectively. The results for the IC50 in series [1], in series [2] and in series [3] were greater than 30000 nM, 270 nM and greater than 10000 nM, respectively. The microsomal CLint in series [6] stood at 143 µL/min/mg. In addition, the hepatocyte CLint in series [7] was determined as 10 µL/min/1e6 cells. In addition, the logD in [12] came out at 2.3. For the same molecule, the solubility thermodynamic in [11] amounted to 21 µM (≈ 8.98 µg/mL).

In the case of `CCCc1c(C(=O)Nc2cc(S(=O)(=O)N(C)C)ccc2C)cnn1Cc1ccccc1`, the values for the IC50 in series [1], in series [2] and in [3] were 6300 nM, 53 nM and greater than 10000 nM, respectively.

As to `CCCc1c(C(=O)Nc2cc(OCc3ccccc3)ccc2C)cnn1-c1ccccc1`, the concentration for half-maximal inhibition (IC50) in [1] was greater than 100000 nM; in [2], greater than 100000 nM; in [3], greater than 10000 nM.

Regarding `CCCc1c(C(=O)Nc2cc(S(=O)(=O)N(C)C)ccc2C)cnn1-c1ccc(Cl)cc1`, the figures for the IC50 in series [1], in series [2] and in series [3] were 20000 nM, 390 nM and greater than 10000 nM, respectively.

Regarding `O=C(NCc1ccncc1)c1ccc(Oc2ccccc2Cl)cc1`, the IC50 in [1] was 1700 nM; in [2] it was 1700 nM; in series [3], greater than 10000 nM.

`CCCc1c(C(=O)Nc2cc(C(=O)O)ccc2C)cnn1-c1ccccc1`: the 50% inhibitory concentration (IC50) in series [1] is 4200 nM; in series [2] it was 86 nM; in [13], 21000 nM; in [3] it was greater than 10000 nM.

In the case of `CCCc1c(C(=O)Nc2cc(C(=O)OC)ccc2C)cnn1-c1ccccc1`, the IC50 in series [1] was 500 nM; in series [2], 490 nM; in [3], greater than 10000 nM.

Consider `N#Cc1ccccc1Oc1ccc(C(=O)NCc2ccncc2)cc1`, for which the results for the fraction unbound in [5] and in [10] were 0.14 and 0.085, respectively. Besides, in [14], the equilibrium dissociation constant (Kd) is greater than 20000 nM. Further, the IC50 is 21000 nM in series [1]; 600 nM in series [2]; 25000 nM in series [4]; 5400 nM in series [13]; greater than 10000 nM in series [3]; 1000 nM against Cytochrome P450 3A4. The microsomal CLint in series [6] is less than 2 µL/min/mg. The hepatocyte CLint in series [7] amounted to 28 µL/min/1e6 cells. Besides, in series [8], the outcome was inactive. The molecule further showed an inhibition in series [9] of 30%. The Ki in series [15] is 290 nM. Further, the solubility thermodynamic in [11] turned out to be 120 µM (≈ 39.5 µg/mL).

The values are drawn from ChEMBL document CHEMBL3393028, “Discovery and characterization of MAPK-activated protein kinase-2 prevention of activation inhibitors” (J Med Chem, 2015).
